Assay results: patent publication US20210100246A1, “PYRIDYL-FORMAMIDINES HAVING A FUNGICIDAL ACTIVITY, THEIR AGRONOMIC COMPOSITIONS AND USE THEREOF” (ISAGRO, S.p.A., priority 2017, published 2021)

Experiments:
[1] = test system: wheat seedlings; experiment: Phytotoxicity (percentage of leaf necrosis) on wheat seedlings; type: in vivo; conditions: for Phytotoxicity % N.F. (leaf necrosis): wheat seedlings, scale 0-100
Protocol: (§1) Leaves of wheat plants of the Salgemma variety, grown in pots in a conditioned environment at 20° C. and 70% of Relative Humidity (RH) were treated by spraying both sides of the leaves with the compound under examination (see Table 4 hereunder) dispersed in a hydroacetonic solution at 20% by volume of acetone.
At the same time, an evaluation of the phytotoxicity was effected (percentage of leaf necrosis) induced on the wheat seedlings by the application of the products: in this case the evaluation scale ranges from 0 (completely healthy plant) to 100 (completely necrotic plant).

[2] = test system: Uromyces Appendiculatus; experiment: Preventive fungicidal activity (5 days) against Uromyces Appendiculatus on beans; type: in vivo
Protocol: Determination of the preventive fungicidal activity (5 days) against Uromyces Appendiculatus on beans.
(§2) Bean plants cv. Borlotto of Vigevano, grown in pots in a conditioned environment, were treated by spraying both sides with the products under examination in a hydroacetonic solution with 20% by volume of acetone (vol./vol.).
After remaining 5 days in a conditioned environment at 23° C. and 70% of relative humidity, the plants were sprayed on the lower side with an aqueous suspension of spores of Uromyces Appendiculatus (200,000 spores/cc); after remaining 24 hours in a humidity-saturated environment, they were re-transferred to the conditioned environment.
After this period, the external symptoms of the pathogen appeared and it was therefore possible to proceed with the visual evaluation of the intensity of the infection.
(§3) The fungicidal activity is expressed as a percentage of the reduction, with respect to non-treated seedlings (comparison), in the area of the leaf affected by the disease (100=full effectiveness; 0=zero effectiveness).

[3] = test system: Puccinia Recondita; experiment: Preventive fungicidal activity (5 days) against Puccinia Recondita on wheat; type: in vivo; conditions: wheat; for Activity P5 NT (reduction of leaf area affected, parts developed during the test): non-treated parts (NT)
Protocol: Determination of the preventive fungicidal activity (5 days) against Puccinia Recondita on wheat.
as §1
After remaining 5 days in a conditioned environment, the plants were sprayed on both sides of the leaves with an aqueous suspension of conidia of Puccinia Recondita (2 mg of inoculum per 1 ml of solution for infection).
After spraying, the plants were kept in a humidity-saturated environment at a temperature ranging from 18 to 24° C. for the incubation period of the fungus (1 day).
At the end of this period, the plants were put in a greenhouse with a relative humidity (RH) of 70% and at a temperature of 18-24° C. for 14 days.
At the end of this period, the external symptoms of the pathogen appeared and it was therefore possible to proceed with the visual evaluation of the intensity of the infection, both on the parts treated directly with the products (T) and on the parts developed during the implementation of the test (NT).
as §3

[4] = test system: Sphaerotheca Fuliginea; experiment: Preventive fungicidal activity (7 days) against Sphaerotheca Fuliginea on cucumbers; type: in vivo
Protocol: Determination of the preventive fungicidal activity (7 days) against Sphaerotheca Fuliginea on cucumbers.
(§4) Cucumber plants cv. Lungo of China, grown in pots in a conditioned environment were treated by spraying both sides with the products under examination in a hydroacetonic solution with 20% by volume of acetone (vol./vol.).
7 days after the treatment, the plants were sprayed on the upper side with an aqueous suspension of spores of Sphaerotheca Fuliginea (200,000 spores/cc); they were then re-transferred to the conditioned environment.
At the end of the period of incubation (8 days), the evaluation of the intensity of the infection was finally effected.
as §3

[5] = Accelerated stability test of 5% solutions in commercial solvents (54° C., 2 weeks, HPLC); type: physicochemical
Protocol: Stability tests of the compositions containing compounds having formula (I) in a solvent
In order to evaluate the chemical stability of the compounds having Formula (I) in a solvent, 5% solutions were prepared, containing 250 mg of compounds Nr. 1, 17, 39 and 40, dissolved in 4.75 g of various commercial solvents used for the preparation of emulsifiable concentrates.
The resulting solutions were put in an oven at 54° C. for 2 weeks (according to Cipac MT 46.1 update 2012) and then analyzed by means of HPLC in order to verify the concentration of the active ingredient contained therein. The percentage of degradation of the compound having Formula (I) was therefore obtained, after the accelerated stability test.

[6] = test system: cucumber seedlings; experiment: Phytotoxicity (percentage of leaf necrosis) on cucumber seedlings; type: in vivo; conditions: scale 0-100
Protocol: as §4
At the same time, an evaluation of the phytotoxicity was effected (percentage of leaf necrosis) induced on the cucumber seedlings by the application of the products: in this case the evaluation scale ranges from 0 (completely healthy plant) to 100 (completely necrotic plant).

[7] = test system: bean seedlings; experiment: Phytotoxicity (percentage of leaf necrosis) on bean seedlings; type: in vivo; conditions: scale 0-100
Protocol: as §2
At the same time, an evaluation of the phytotoxicity was effected (percentage of leaf necrosis) induced on the bean seedlings by the application of the products: in this case the evaluation scale ranges from 0 (completely healthy plant) to 100 (completely necrotic plant).

[8] = test system: Helmintosporium teres; experiment: Preventive fungicidal activity (7 days) against Helmintosporium teres on barley; type: in vivo; conditions: for Activity P7: 125 ppm, scale 0 (completely infected plant) to 100 (healthy plant)
Protocol: Determination of the preventive fungicidal activity (7 days) against Helmintosporium teres on barley. […] After remaining 7 days in a conditioned environment, the plants were sprayed on both sides of the leaves with an aqueous suspension of conidia of Helmintosporium teres (50,000 conidia/cc+Tween 20-1 drop/100 ml). The plants were then kept in a controlled environment during the incubation period of the fungus (wet room 1 day for infection, 3 days in a cell with 70% of R.H. and at a temperature of […] for the incubation period, 3 days for completion in a wet room, biological cycle 12 days). At the end of this period (12 days), the fungicidal activity was evaluated according to an evaluation percentage scale from 0 (completely infected plant) to 100 (healthy plant).

[9] = test system: Parastagonospora nodorum; experiment: Preventive activity (7 days) against Parastagonospora nodorum on wheat; type: in vivo; conditions: 250 ppm
Protocol: Determination of the preventive activity (7 days) of the compounds having formula (I) against Parastagonospora nodorum on wheat. […] After remaining 48 hours in a humidity-saturated environment, at 21° C., the plants were transferred for the incubation period (10-12 days) to a conditioned environment at 70% of R.H. and at a temperature of 24° C. At the end of this period, the external symptoms of the pathogen appeared and it was therefore possible to proceed with the visual evaluation of the intensity of the infection. The fungicidal activity was expressed as a percentage of the reduction, with respect to non-treated seedlings (comparison), in the area of the leaf affected by the disease (100=full effectiveness; 0=zero effectiveness). Table 7 indicates the results obtained by carrying out the test described with compound Nr. 12, compared with a compound described in WO2008/101682: […]

CCN(C)C=Nc1cc(Br)c(SCc2cccc(C(F)(F)F)c2)nc1C [Compound 1, N-ethyl-N-methyl-N′-5bromo-2-methyl-6-{[3-(trifluoromethyl)benzyl]thio}pyridyl-3-formamidine]
Phytotoxicity % N.F. (leaf necrosis) ([1]; 125 ppm): 0 % N.F.
Phytotoxicity % N.F. (leaf necrosis) ([1]; 250 ppm): 0 % N.F.
symptoms of phytotoxicity on the plant (in words) ([1]; wheat, summary of Table 4): do not show any symptoms of phytotoxicity
Activity P5 ([2]; 30 ppm): 90%
Activity P5 ([2]; 125 ppm): 100%
Activity P5 NT (reduction of leaf area affected, parts developed during the test) ([3]; 125 ppm): 75%
Activity P5 T (reduction of leaf area affected, parts treated directly) ([3]; 125 ppm): 98%
Activity P5 NT (reduction of leaf area affected, parts developed during the test) ([3]; 250 ppm): 85%
Activity P5 T (reduction of leaf area affected, parts treated directly) ([3]; 250 ppm): 100%
effectiveness in containing the disease (in words) ([3]; summary of Table 4): effective in containing the disease
Activity P5 ([4]; 30 ppm): 90%
Activity P5 ([4]; 125 ppm): 100%
percentage of degradation ([5]; solvent ADMA 10 (N,N-dimethyldecanamide)): 1.07%
percentage of degradation ([5]; solvent Alkamuls T/20 (ethoxylated sorbitan monolaurate)): 58.61%
percentage of degradation ([5]; solvent CME (rapeseed methyl ester)): 10.79%
percentage of degradation ([5]; solvent FMPC (N-formylmorpholine and propylene carbonate)): 1.46%
percentage of degradation ([5]; solvent Green 25 (dimethylsulfoxide, acetophenone, 2-ethylhexyl acetate)): 2.07%
percentage of degradation ([5]; solvent Propylene carbonate): 3%
percentage of degradation ([5]; solvent Purasolv BL (butyl lactate)): 100%
percentage of degradation ([5]; solvent RPDE (dimethyl glutarate, dimethyl succinate, dimethyl adipate)): 0.78%
Phytotoxicity % N.F. (leaf necrosis) ([6]; 30 ppm): 0 % N.F.
Phytotoxicity % N.F. (leaf necrosis) ([6]; 125 ppm): 0 % N.F.
Phytotoxicity % N.F. (leaf necrosis) ([7]; 30 ppm): 0 % N.F.
Phytotoxicity % N.F. (leaf necrosis) ([7]; 125 ppm): 0 % N.F.

CCN(C)C=Nc1cc(Br)c(Sc2ccc(Cl)c(C(F)(F)F)c2)nc1C [Compound 8]
effectiveness on Helmintosporium teres (in words) [8]: higher effectiveness with respect to the reference compound CR4
Activity P7 [8]: 30%

N-ethyl-N-methyl-N′-[5-bromo-2-methyl-6-[(1-methyl -2-propoxyethoxy]pyridyl-3-formamidine [CR3]
Activity P7 [9]: 57%

N-ethyl-N-methyl-N′-[5-bromo-2-methyl-6-[(4-chloro-3-trifluoromethyl]phenoxy]pyridyl-3-formamidine [CR4, reference compound]
effectiveness on Helmintosporium teres (in words) [8]: completely inactive
Activity P7 [8]: 0%
